The source of these data is PubChem BioAssay AID588639 (Sanford-Burnham Center for Chemical Genomics, 2011).

Values joined by “and” are separate entries in the source; they are usually repeats but may differ in a detail not shown here. Identical values can stand only once. Active and inactive are the calls of the source. The rule behind the calls is not given here.

The target of the assay is Alkaline phosphatase, tissue-nonspecific isozyme (Homo sapiens) (UniProt P05186). Nature of the assay: inhibition of tissue-nonspecific alkaline phosphatase – biochemical, set 2, selectivity assay for mouse IAP inhibitor project, SAR follow-up (AID 588639). As to conditions: purified human TNAP enzyme activity, counter-screen for mouse IAP. On the technique in general: Counterscreens check selectivity or assay interference.
Sequence of Alkaline phosphatase, tissue-nonspecific isozyme (Homo sapiens) (P05186 whole entry, looked up): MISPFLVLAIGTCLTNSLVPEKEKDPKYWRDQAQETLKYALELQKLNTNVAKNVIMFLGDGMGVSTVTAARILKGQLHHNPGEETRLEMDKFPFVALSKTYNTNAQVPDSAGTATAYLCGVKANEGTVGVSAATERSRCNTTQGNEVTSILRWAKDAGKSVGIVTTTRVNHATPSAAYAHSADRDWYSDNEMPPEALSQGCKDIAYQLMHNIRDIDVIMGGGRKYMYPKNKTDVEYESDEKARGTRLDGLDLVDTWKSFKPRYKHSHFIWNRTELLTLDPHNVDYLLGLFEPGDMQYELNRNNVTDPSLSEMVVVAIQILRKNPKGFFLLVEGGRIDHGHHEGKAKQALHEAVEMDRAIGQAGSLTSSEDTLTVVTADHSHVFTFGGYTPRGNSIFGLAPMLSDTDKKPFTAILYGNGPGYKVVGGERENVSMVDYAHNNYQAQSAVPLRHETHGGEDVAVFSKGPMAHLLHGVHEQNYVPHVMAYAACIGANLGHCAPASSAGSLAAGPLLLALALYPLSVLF
For the compound `O=c1[nH]c2ccc(S(=O)(=O)Nc3ccc4c(c3)OCO4)cc2o1`, the IC50 (commonly the concentration at which inhibition is half-maximal) is > 100 µM (inactive).

For `COc1ccc(CCNC(=O)CCCNS(=O)(=O)c2ccc3[nH]c(=O)oc3c2)cc1`, the IC50 is > 100 µM (inactive).

`COc1ccccc1CNC(=O)CCNS(=O)(=O)c1ccc2[nH]c(=O)oc2c1`: the IC50 is > 100 µM (inactive). The result for `Cc1cc(NC(=O)CCNS(=O)(=O)c2ccc3[nH]c(=O)oc3c2)ccc1Br` reads > 100 µM (inactive). As for `COc1cccc(CNC(=O)CCNS(=O)(=O)c2ccc3[nH]c(=O)oc3c2)c1`, the IC50 was > 100 µM (inactive). Consider `CC(C)Oc1ccc(CNC(=O)C2CCCN(S(=O)(=O)c3ccc4[nH]c(=O)oc4c3)C2)cc1` (configuration not stated), for which the IC50 is > 100 µM (inactive). The result for `O=C(CCS(=O)(=O)Nc1ccc2[nH]c(=O)oc2c1)NCc1ccccc1Cl` reads > 100 µM (inactive); that for `O=c1[nH]c2ccc(S(=O)(=O)NCCc3ccc4c(c3)OCO4)cc2o1`, > 100 µM (inactive). As for `Cc1ccc(CNC(=O)CCNS(=O)(=O)c2ccc3[nH]c(=O)oc3c2)cc1`, the IC50 was > 100 µM (inactive). The result for `O=C(CCNS(=O)(=O)c1ccc2[nH]c(=O)oc2c1)NCc1ccccc1Cl` reads > 100 µM (inactive); that for `CCc1ccc(NC(=O)C2CCCN(S(=O)(=O)c3ccc4c(c3)oc(=O)n4C)C2)cc1` (configuration not stated), > 100 µM (inactive); that for `O=C(N/N=C/c1ccc(Br)cc1F)c1cc(O)ccc1O`, > 100 µM (inactive).

`O=c1[nH]c2ccc(S(=O)(=O)NCc3ccc4c(c3)OCO4)cc2o1`: the IC50 was > 100 µM (inactive).

With `COc1ccc(CNC(=O)CCCNS(=O)(=O)c2ccc3[nH]c(=O)oc3c2)cc1OC`, the IC50 is > 100 µM (inactive). As for `O=C(N/N=C/c1ccccc1C(F)(F)F)c1cc(O)c(O)c(O)c1`, the figure is > 100 µM (inactive); as for `O=C(CCCNS(=O)(=O)c1ccc2[nH]c(=O)oc2c1)NCc1ccccc1Cl`, 80.9 µM and > 100 µM (inactive); as for `C/C(=N\NC(=O)c1cc(O)c(O)c(O)c1)c1ccc(O)cc1O`, > 100 µM (inactive). `Cc1ccc(C)c(NC(=O)CCNS(=O)(=O)c2ccc3c(c2)CCC3)c1`: the IC50 was > 100 µM (inactive). The result for `COc1cccc(/C=N/NC(=O)c2cc(O)c(O)c(O)c2)c1O` reads > 100 µM (inactive); that for `O=C(N/N=C/c1c(F)cccc1Cl)c1ccc(O)cc1`, > 100 µM (inactive); that for `Cc1ccccc1CNC(=O)CCCNS(=O)(=O)c1ccc2[nH]c(=O)oc2c1`, > 100 µM (inactive). `O=C(CCNS(=O)(=O)c1ccc2[nH]c(=O)oc2c1)NCc1ccccc1`: the IC50 was > 100 µM (inactive). The result for `O=C(CCS(=O)(=O)Nc1ccc2[nH]c(=O)oc2c1)NCc1cccc(F)c1` reads > 100 µM (inactive); that for `COc1ccc(CNC(=O)C2CCCN(S(=O)(=O)c3ccc4[nH]c(=O)oc4c3)C2)cc1` (configuration not stated), > 100 µM (inactive). As for `COc1cccc(NC(=O)CCNS(=O)(=O)c2ccc3c(c2)oc(=O)n3C)c1`, the figure is > 100 µM (inactive). For `CCOc1ccc(CNC(=O)C2CCCN(S(=O)(=O)c3ccc4[nH]c(=O)oc4c3)C2)cc1OC` (configuration not stated), the IC50 is > 100 µM (inactive). The result for `COc1ccc(NC(=O)CCNS(=O)(=O)c2ccc3ccccc3c2)cc1OC` reads > 100 µM (inactive). As for `COc1cccc(CNC(=O)CNS(=O)(=O)c2ccc3[nH]c(=O)oc3c2)c1`, the figure is > 100 µM (inactive) and 73.8 µM; as for `COc1ccc(C(=O)N/N=C/c2c(F)cccc2Cl)cc1OC`, > 100 µM (inactive). The result for `N#Cc1cccc(NC(=O)CNS(=O)(=O)c2ccc3[nH]c(=O)oc3c2)c1` reads > 100 µM (inactive); that for `O=C(N/N=C/c1ccccc1F)c1ccc(O)cc1`, > 100 µM (inactive).

For the compound `O=C(CCNS(=O)(=O)c1ccc2[nH]c(=O)oc2c1)NCc1ccc(F)cc1`, the IC50 was > 100 µM (inactive). `O=C(CCNS(=O)(=O)c1ccc2[nH]c(=O)oc2c1)NCc1cccc(Cl)c1`: the IC50 is > 100 µM (inactive). As for `O=C(CCCNS(=O)(=O)c1ccc2[nH]c(=O)oc2c1)NCc1ccc2c(c1)OCO2`, the figure is > 100 µM (inactive); as for `COc1ccccc1CNC(=O)CCCNS(=O)(=O)c1ccc2[nH]c(=O)oc2c1`, > 100 µM (inactive). The result for `CSc1cccc(NC(=O)CCNS(=O)(=O)c2ccc3c(c2)oc(=O)n3C)c1` reads > 100 µM (inactive); that for `O=C(N/N=C/c1cccc(Cl)c1Cl)c1cc(O)c(O)c(O)c1`, > 100 µM (inactive).
